Each structure is given as a SMILES string. pKi: −log10 of the molar value. Bounds are passed on as bounds.

In experiment [1] the target is T1, 5-hydroxytryptamine receptor 2C (Homo sapiens, UniProt P28335).
T1 sequence (P28335 whole entry): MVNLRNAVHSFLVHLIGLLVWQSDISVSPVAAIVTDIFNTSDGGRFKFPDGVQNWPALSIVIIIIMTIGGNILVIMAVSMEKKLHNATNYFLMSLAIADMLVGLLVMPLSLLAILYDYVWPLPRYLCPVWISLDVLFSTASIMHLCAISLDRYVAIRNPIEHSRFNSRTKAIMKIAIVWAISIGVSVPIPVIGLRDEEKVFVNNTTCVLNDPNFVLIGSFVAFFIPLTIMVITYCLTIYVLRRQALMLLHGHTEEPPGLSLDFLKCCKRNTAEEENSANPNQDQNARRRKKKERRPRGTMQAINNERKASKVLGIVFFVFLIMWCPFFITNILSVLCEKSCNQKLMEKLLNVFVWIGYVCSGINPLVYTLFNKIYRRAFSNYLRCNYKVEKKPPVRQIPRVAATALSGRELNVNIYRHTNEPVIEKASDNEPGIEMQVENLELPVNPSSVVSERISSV
As to the kind of experiment: PDSP Secondary Binding target: HTR2C - Compounds are tested at 10 uM concentration, plate are incubated at room temperature in the dark for 90 minutes. Reaction are stopped by vacuum filtration onto 0.3% polyethyleneimine soaked filter mats using Filtermate harvester. Scintillation cocktail is then melted onto microwave-dried filters on a hot plate and the radio activity is counted in Microbia counter.

For another experiment, the target named is Mu-type opioid receptor (Homo sapiens, UniProt P35372). As to the kind of experiment: PDSP Secondary Binding target: OPRM1 - Compounds are tested at 10 uM concentration, plate are incubated at room temperature in the dark for 90 minutes. Reaction are stopped by vacuum filtration onto 0.3% polyethyleneimine soaked filter mats using Filtermate harvester. Scintillation cocktail is then melted onto microwave-dried filters on a hot plate and the radio activity is counted in Microbia counter.

Experiment [2] has as its target 5-hydroxytryptamine receptor 2A (Homo sapiens, UniProt P28223). Put plainly: PDSP Secondary Binding target: HTR2A - Compounds are tested at 10 uM concentration, plate are incubated at room temperature in the dark for 90 minutes. Reaction are stopped by vacuum filtration onto 0.3% polyethyleneimine soaked filter mats using Filtermate harvester. Scintillation cocktail is then melted onto microwave-dried filters on a hot plate and the radio activity is counted in Microbia counter.

Experiment [3] addresses 5-hydroxytryptamine receptor 2B (Homo sapiens, UniProt P41595). Put plainly: PDSP Secondary Binding target: HTR2B - Compounds are tested at 10 uM concentration, plate are incubated at room temperature in the dark for 90 minutes. Reaction are stopped by vacuum filtration onto 0.3% polyethyleneimine soaked filter mats using Filtermate harvester. Scintillation cocktail is then melted onto microwave-dried filters on a hot plate and the radio activity is counted in Microbia counter.

Experiment [4] has as its target Sodium-dependent dopamine transporter (Homo sapiens, UniProt Q01959). Put plainly: PDSP Secondary Binding target: SLC6A3 - Compounds are tested at 10 uM concentration, plate are incubated at room temperature in the dark for 90 minutes. Reaction are stopped by vacuum filtration onto 0.3% polyethyleneimine soaked filter mats using Filtermate harvester. Scintillation cocktail is then melted onto microwave-dried filters on a hot plate and the radio activity is counted in Microbia counter.

Another experiment addresses D(1B) dopamine receptor (Homo sapiens, UniProt P21918). Put plainly: PDSP Secondary Binding target: DRD5 - Compounds are tested at 10 uM concentration, plate are incubated at room temperature in the dark for 90 minutes. Reaction are stopped by vacuum filtration onto 0.3% polyethyleneimine soaked filter mats using Filtermate harvester. Scintillation cocktail is then melted onto microwave-dried filters on a hot plate and the radio activity is counted in Microbia counter.

The target in experiment [5] is Sodium-dependent noradrenaline transporter (Homo sapiens, UniProt P23975). Put plainly: PDSP Secondary Binding target: SLC6A2 - Compounds are tested at 10 uM concentration, plate are incubated at room temperature in the dark for 90 minutes. Reaction are stopped by vacuum filtration onto 0.3% polyethyleneimine soaked filter mats using Filtermate harvester. Scintillation cocktail is then melted onto microwave-dried filters on a hot plate and the radio activity is counted in Microbia counter.

Experiment [6] addresses Sigma intracellular receptor 2 (Homo sapiens, UniProt Q5BJF2). As to the kind of experiment: PDSP Secondary Binding target: TMEM97 - Compounds are tested at 10 uM concentration, plate are incubated at room temperature in the dark for 90 minutes. Reaction are stopped by vacuum filtration onto 0.3% polyethyleneimine soaked filter mats using Filtermate harvester. Scintillation cocktail is then melted onto microwave-dried filters on a hot plate and the radio activity is counted in Microbia counter.

Experiment [7] concerns the target Kappa-type opioid receptor (Homo sapiens, UniProt P41145). Put plainly: PDSP Secondary Binding target: OPRK1 - Compounds are tested at 10 uM concentration, plate are incubated at room temperature in the dark for 90 minutes. Reaction are stopped by vacuum filtration onto 0.3% polyethyleneimine soaked filter mats using Filtermate harvester. Scintillation cocktail is then melted onto microwave-dried filters on a hot plate and the radio activity is counted in Microbia counter.

Experiment [8] has as its target T2, Alpha-2C adrenergic receptor (Homo sapiens, UniProt P18825).
T2 sequence (P18825 whole entry): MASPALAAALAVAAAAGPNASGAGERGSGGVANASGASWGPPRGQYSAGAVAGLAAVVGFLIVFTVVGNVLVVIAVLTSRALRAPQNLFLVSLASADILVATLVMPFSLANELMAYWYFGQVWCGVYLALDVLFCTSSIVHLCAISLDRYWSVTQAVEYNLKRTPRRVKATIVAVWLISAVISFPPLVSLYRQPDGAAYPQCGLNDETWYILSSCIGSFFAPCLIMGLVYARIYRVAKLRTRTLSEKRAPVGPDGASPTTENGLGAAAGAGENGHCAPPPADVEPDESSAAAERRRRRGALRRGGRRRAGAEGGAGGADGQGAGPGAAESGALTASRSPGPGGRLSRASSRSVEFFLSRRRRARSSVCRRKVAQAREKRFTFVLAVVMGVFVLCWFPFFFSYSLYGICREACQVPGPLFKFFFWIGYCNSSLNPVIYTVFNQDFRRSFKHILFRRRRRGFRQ
Put plainly: PDSP Secondary Binding target: ADRA2C - Compounds are tested at 10 uM concentration, plate are incubated at room temperature in the dark for 90 minutes. Reaction are stopped by vacuum filtration onto 0.3% polyethyleneimine soaked filter mats using Filtermate harvester. Scintillation cocktail is then melted onto microwave-dried filters on a hot plate and the radio activity is counted in Microbia counter.

In experiment [9] the target is Sodium-dependent serotonin transporter (Homo sapiens, UniProt P31645). Put plainly: PDSP Secondary Binding target: SLC6A4 - Compounds are tested at 10 uM concentration, plate are incubated at room temperature in the dark for 90 minutes. Reaction are stopped by vacuum filtration onto 0.3% polyethyleneimine soaked filter mats using Filtermate harvester. Scintillation cocktail is then melted onto microwave-dried filters on a hot plate and the radio activity is counted in Microbia counter.

For experiment [10], the target named is T3, Alpha-2A adrenergic receptor (Homo sapiens, UniProt P08913).
T3 sequence (P08913 whole entry): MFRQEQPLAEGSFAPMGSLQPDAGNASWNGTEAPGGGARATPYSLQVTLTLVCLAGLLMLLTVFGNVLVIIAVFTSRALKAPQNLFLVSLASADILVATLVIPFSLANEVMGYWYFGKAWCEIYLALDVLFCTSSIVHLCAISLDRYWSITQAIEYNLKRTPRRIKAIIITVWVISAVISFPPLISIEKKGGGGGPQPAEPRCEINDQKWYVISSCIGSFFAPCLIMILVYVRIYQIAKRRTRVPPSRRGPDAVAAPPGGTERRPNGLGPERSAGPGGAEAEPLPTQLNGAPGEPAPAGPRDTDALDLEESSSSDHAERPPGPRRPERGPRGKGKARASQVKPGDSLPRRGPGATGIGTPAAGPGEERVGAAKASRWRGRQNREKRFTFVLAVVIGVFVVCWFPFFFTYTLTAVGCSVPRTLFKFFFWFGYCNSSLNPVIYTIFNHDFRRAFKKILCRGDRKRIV
Put plainly: PDSP Secondary Binding target: ADRA2A - Compounds are tested at 10 uM concentration, plate are incubated at room temperature in the dark for 90 minutes. Reaction are stopped by vacuum filtration onto 0.3% polyethyleneimine soaked filter mats using Filtermate harvester. Scintillation cocktail is then melted onto microwave-dried filters on a hot plate and the radio activity is counted in Microbia counter.

The target in experiment [11] is T4, Alpha-2B adrenergic receptor (Homo sapiens, UniProt P18089).
T4 sequence (P18089 whole entry): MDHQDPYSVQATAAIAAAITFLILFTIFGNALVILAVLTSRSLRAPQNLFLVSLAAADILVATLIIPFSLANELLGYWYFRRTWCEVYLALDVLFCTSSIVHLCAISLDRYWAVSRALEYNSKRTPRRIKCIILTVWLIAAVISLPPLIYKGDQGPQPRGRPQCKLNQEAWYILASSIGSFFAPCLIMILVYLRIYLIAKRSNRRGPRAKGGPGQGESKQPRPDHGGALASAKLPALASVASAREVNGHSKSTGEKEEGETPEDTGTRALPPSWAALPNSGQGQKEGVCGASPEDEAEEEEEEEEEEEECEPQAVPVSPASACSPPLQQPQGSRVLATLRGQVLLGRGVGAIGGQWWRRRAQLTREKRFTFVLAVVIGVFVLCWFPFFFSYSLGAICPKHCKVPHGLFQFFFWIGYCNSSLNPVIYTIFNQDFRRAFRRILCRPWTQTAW
Put plainly: PDSP Secondary Binding target: ADRA2B - Compounds are tested at 10 uM concentration, plate are incubated at room temperature in the dark for 90 minutes. Reaction are stopped by vacuum filtration onto 0.3% polyethyleneimine soaked filter mats using Filtermate harvester. Scintillation cocktail is then melted onto microwave-dried filters on a hot plate and the radio activity is counted in Microbia counter.

A further experiment deals with D(3) dopamine receptor (Homo sapiens, UniProt P35462). As to the kind of experiment: PDSP Secondary Binding target: DRD3 - Compounds are tested at 10 uM concentration, plate are incubated at room temperature in the dark for 90 minutes. Reaction are stopped by vacuum filtration onto 0.3% polyethyleneimine soaked filter mats using Filtermate harvester. Scintillation cocktail is then melted onto microwave-dried filters on a hot plate and the radio activity is counted in Microbia counter.

Experiment [12] has as its target Beta-3 adrenergic receptor (Homo sapiens, UniProt P13945). As to the kind of experiment: PDSP Secondary Binding target: ADRB3 - Compounds are tested at 10 uM concentration, plate are incubated at room temperature in the dark for 90 minutes. Reaction are stopped by vacuum filtration onto 0.3% polyethyleneimine soaked filter mats using Filtermate harvester. Scintillation cocktail is then melted onto microwave-dried filters on a hot plate and the radio activity is counted in Microbia counter.

Experiment [13] has as its target T5, Muscarinic acetylcholine receptor M5 (Homo sapiens, UniProt P08912).
T5 sequence (P08912 whole entry): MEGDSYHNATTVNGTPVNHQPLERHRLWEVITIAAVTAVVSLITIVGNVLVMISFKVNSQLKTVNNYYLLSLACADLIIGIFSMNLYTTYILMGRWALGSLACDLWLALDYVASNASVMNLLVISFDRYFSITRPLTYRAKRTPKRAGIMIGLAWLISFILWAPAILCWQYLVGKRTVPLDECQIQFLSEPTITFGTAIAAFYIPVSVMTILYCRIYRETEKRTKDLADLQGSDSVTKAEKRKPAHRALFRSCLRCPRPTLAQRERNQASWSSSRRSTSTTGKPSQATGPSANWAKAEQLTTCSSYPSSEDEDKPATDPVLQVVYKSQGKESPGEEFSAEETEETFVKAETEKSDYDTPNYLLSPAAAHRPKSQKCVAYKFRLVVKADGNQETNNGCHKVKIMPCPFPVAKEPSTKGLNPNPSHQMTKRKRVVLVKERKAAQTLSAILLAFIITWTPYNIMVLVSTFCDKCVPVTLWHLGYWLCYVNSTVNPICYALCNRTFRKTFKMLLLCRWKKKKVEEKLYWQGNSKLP
Put plainly: PDSP Secondary Binding target: CHRM5 - Compounds are tested at 10 uM concentration, plate are incubated at room temperature in the dark for 90 minutes. Reaction are stopped by vacuum filtration onto 0.3% polyethyleneimine soaked filter mats using Filtermate harvester. Scintillation cocktail is then melted onto microwave-dried filters on a hot plate and the radio activity is counted in Microbia counter.

Experiment [14] deals with Sigma non-opioid intracellular receptor 1 (Homo sapiens, UniProt Q99720). Put plainly: PDSP Secondary Binding target: SIGMAR1 - Compounds are tested at 10 uM concentration, plate are incubated at room temperature in the dark for 90 minutes. Reaction are stopped by vacuum filtration onto 0.3% polyethyleneimine soaked filter mats using Filtermate harvester. Scintillation cocktail is then melted onto microwave-dried filters on a hot plate and the radio activity is counted in Microbia counter.

Another experiment has as its target D(2) dopamine receptor (Homo sapiens, UniProt P14416). Put plainly: PDSP Secondary Binding target: DRD2 - Compounds are tested at 10 uM concentration, plate are incubated at room temperature in the dark for 90 minutes. Reaction are stopped by vacuum filtration onto 0.3% polyethyleneimine soaked filter mats using Filtermate harvester. Scintillation cocktail is then melted onto microwave-dried filters on a hot plate and the radio activity is counted in Microbia counter.

Sequence of D(1B) dopamine receptor (P21918 whole entry): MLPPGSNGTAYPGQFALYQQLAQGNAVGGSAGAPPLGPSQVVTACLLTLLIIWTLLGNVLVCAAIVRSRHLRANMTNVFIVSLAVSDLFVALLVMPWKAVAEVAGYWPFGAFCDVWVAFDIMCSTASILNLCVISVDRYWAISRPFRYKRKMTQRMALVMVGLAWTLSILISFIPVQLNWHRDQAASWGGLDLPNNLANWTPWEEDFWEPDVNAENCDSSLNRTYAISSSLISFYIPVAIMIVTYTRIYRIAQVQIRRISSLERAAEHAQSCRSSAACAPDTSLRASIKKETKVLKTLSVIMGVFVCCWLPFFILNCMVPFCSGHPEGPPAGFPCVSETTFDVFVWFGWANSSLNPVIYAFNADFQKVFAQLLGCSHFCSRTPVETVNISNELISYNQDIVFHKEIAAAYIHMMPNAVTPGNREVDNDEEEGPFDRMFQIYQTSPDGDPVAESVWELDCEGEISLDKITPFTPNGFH
Sequence of Sigma intracellular receptor 2 (Q5BJF2 whole entry): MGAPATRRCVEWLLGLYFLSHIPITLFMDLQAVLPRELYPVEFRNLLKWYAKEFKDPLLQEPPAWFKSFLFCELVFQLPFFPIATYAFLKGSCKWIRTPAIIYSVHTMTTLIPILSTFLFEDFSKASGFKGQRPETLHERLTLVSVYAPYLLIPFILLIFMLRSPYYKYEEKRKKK
Sequence of Sodium-dependent serotonin transporter (P31645 whole entry): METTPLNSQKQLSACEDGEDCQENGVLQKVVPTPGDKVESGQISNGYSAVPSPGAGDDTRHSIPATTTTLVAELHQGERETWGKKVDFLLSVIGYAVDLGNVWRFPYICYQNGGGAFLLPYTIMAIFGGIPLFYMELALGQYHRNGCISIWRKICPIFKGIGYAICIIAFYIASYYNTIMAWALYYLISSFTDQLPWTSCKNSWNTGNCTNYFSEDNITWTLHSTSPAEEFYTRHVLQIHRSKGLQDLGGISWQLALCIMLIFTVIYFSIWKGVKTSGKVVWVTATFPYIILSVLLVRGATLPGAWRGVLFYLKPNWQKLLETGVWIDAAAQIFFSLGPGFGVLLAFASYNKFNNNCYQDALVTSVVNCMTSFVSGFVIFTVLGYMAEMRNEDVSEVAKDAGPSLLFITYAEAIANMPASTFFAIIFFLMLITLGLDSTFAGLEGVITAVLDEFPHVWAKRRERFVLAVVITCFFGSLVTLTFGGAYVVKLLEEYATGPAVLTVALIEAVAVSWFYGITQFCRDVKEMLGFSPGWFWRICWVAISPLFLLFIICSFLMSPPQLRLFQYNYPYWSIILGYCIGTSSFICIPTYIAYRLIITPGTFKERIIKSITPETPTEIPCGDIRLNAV
Sequence of Kappa-type opioid receptor (P41145 whole entry): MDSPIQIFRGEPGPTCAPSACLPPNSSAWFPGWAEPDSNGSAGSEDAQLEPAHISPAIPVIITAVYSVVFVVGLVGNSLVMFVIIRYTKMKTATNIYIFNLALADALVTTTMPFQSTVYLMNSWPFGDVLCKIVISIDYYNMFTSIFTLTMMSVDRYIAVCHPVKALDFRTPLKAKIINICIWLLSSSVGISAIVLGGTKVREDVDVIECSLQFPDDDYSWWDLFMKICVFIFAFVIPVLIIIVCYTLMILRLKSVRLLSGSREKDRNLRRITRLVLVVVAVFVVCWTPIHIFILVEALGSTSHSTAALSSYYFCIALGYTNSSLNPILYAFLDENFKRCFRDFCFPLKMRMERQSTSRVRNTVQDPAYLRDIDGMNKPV
Sequence of Mu-type opioid receptor (P35372 whole entry): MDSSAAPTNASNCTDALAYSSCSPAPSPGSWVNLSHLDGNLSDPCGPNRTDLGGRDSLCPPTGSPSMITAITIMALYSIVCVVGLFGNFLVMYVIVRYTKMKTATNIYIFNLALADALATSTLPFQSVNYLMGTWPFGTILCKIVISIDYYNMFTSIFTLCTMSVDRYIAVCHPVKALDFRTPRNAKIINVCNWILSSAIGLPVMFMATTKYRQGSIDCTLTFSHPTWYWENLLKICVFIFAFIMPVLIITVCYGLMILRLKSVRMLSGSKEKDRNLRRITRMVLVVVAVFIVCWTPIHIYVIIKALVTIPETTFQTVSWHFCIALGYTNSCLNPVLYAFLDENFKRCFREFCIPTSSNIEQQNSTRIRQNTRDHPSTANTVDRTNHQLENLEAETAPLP
Sequence of Sodium-dependent noradrenaline transporter (P23975 whole entry): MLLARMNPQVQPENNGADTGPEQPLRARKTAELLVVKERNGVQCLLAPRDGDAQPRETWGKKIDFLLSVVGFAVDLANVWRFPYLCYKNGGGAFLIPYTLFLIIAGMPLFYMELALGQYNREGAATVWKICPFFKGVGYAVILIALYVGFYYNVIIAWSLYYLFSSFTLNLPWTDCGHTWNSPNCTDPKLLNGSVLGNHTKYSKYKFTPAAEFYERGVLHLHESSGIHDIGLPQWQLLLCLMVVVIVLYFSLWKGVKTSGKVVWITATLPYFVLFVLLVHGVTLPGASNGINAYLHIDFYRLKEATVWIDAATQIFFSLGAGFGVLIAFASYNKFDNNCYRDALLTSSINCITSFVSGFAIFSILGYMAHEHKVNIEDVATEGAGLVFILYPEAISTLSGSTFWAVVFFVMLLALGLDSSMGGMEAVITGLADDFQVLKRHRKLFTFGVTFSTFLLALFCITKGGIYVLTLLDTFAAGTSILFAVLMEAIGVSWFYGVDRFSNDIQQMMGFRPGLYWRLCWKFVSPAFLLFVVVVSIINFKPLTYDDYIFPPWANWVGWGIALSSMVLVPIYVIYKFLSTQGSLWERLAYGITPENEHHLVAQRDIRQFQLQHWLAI
Sequence of Beta-3 adrenergic receptor (P13945 whole entry): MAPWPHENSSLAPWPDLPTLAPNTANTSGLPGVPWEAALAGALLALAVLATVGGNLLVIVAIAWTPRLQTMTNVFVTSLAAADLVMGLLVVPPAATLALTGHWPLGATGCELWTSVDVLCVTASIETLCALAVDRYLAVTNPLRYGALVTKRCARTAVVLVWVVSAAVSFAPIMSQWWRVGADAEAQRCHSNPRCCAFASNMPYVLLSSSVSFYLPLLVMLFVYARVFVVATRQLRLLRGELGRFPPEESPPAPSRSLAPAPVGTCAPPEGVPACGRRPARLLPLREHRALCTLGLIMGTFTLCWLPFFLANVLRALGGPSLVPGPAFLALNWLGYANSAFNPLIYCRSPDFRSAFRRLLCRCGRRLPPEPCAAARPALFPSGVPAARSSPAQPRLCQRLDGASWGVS
Sequence of 5-hydroxytryptamine receptor 2A (P28223 whole entry): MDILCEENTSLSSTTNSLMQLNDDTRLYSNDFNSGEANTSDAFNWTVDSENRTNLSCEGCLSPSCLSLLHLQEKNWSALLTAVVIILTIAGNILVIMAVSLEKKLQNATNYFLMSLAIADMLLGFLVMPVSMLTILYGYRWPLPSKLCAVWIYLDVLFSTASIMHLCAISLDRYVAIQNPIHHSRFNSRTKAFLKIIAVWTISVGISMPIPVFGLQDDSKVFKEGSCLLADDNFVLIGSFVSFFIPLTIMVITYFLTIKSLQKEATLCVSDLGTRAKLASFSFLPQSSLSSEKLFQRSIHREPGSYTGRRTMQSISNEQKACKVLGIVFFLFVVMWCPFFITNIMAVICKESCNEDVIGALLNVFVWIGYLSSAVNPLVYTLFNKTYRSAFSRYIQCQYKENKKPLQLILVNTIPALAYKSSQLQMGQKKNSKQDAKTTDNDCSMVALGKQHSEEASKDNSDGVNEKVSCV
Sequence of Sigma non-opioid intracellular receptor 1 (Q99720 whole entry): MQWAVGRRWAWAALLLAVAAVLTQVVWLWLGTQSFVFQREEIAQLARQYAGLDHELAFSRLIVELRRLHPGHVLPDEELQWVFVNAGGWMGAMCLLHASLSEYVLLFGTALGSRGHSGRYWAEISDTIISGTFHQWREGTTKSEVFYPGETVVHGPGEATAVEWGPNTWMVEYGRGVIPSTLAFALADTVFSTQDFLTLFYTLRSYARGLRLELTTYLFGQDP
Sequence of D(3) dopamine receptor (P35462 whole entry): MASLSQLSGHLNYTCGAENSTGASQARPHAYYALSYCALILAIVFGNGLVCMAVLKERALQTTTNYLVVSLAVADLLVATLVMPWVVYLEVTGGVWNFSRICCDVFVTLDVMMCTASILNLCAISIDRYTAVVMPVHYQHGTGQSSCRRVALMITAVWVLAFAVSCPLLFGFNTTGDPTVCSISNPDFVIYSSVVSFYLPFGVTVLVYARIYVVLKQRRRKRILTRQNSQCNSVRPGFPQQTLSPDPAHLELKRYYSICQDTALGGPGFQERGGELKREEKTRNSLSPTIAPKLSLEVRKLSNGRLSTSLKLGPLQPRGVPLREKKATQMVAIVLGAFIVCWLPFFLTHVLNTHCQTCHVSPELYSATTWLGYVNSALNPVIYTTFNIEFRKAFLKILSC
Sequence of Sodium-dependent dopamine transporter (Q01959 whole entry): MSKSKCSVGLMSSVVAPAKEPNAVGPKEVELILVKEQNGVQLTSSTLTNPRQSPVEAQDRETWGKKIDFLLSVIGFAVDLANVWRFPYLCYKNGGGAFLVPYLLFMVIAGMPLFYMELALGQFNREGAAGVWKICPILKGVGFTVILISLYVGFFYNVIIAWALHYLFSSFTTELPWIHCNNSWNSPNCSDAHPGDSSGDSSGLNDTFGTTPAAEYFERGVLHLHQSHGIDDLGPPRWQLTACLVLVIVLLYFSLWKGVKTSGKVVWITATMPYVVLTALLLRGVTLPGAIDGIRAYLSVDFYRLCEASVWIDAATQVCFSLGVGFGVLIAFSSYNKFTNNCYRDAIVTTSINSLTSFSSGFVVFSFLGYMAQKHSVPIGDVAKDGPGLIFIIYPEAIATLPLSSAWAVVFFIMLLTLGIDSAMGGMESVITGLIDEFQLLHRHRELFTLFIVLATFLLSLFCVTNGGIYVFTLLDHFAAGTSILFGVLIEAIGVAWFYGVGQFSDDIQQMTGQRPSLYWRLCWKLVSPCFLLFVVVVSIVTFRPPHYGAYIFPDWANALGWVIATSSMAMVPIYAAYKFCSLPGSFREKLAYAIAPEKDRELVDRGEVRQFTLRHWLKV

One may read the pKi as the Ki on a negative log10 scale, so that one unit is a factor of ten. A lower pKi goes with a high Ki. Turning to `O=C(c1cc2c(cc1F)OC(c1ccc(F)cc1)(c1ccc(Cl)cc1Cl)O2)N1CCOCC1` (configuration not stated), the pKi in experiment [1] was 6.50; at Mu-type opioid receptor, 5.50; in experiment [2], 5.58; in experiment [3], 6.22; in experiment [4], 5.46; at D(1B) dopamine receptor it was 6.15. Moreover, the pKi in [5] was 5.60; in experiment [6], 6.29; in experiment [7], 6.30.
For the compound `CC1CCN(CC[C@H]2CCCN2S(=O)(=O)c2cccc(O)c2)CC1`, the pKi was 6.73 on Mu-type opioid receptor; under 5.00 on D(1B) dopamine receptor; 5.76 in experiment [8]; under 5.00 in [9]; 7.99 in experiment [6]; 5.93 in [10]. The negative logarithm of the Ki (pKi) in experiment [11] was 6.51; in experiment [7], 6.35; at D(3) dopamine receptor, 6.25.
`CCC[C@H](Oc1cc(C)c(-n2cc(C(F)(F)F)cn2)c(C)c1)c1ccc(C(=O)NCCC(=O)O)cc1` [PF-06291874]: the pKi in [12] was under 5.00; in experiment [13], 5.07; in [10] it was under 5.00.
As to `CC(C)NCC(O)c1ccc(N)c(C#N)c1` (configuration not stated) [CIMATEROL], in [12], the pKi is 5.73.
As to `OC[C@H]1O[C@@H](n2cnc3c(NC4CCCC4)ncnc32)[C@H](O)[C@@H]1O` [N6-CYCLOPENTYLADENOSINE], the pKi at D(1B) dopamine receptor was under 5.00; in [14], 5.58.
Turning to `Cc1cc(NC(=O)NCCN2CCC(O)(Cc3ccccc3)CC2)c2ccccc2n1` [PALOSURAN], the pKi in [1] was 6.86; on D(2) dopamine receptor, 6.23; in experiment [2] it was 5.80; in experiment [5], 5.96; in [9], 6.00; in experiment [6], 6.02. For the same compound, the negative logarithm of the Ki (pKi) was 5.99 in [10] and 5.77 in experiment [14].
